Literature values in patent US10426724B2, “Antihistamine compositions, combinations, and use thereof” (APTAPHARMA INC., priority 2016, dated 2019).

Target: histamine H1-receptors (Homo sapiens, UniProt P35367)
Details: from time of administration to symptomatic relief; Annals of Allergy, Asthma, & Immunology (1997), 79

histamine H1-receptors, sequence (P35367 whole entry): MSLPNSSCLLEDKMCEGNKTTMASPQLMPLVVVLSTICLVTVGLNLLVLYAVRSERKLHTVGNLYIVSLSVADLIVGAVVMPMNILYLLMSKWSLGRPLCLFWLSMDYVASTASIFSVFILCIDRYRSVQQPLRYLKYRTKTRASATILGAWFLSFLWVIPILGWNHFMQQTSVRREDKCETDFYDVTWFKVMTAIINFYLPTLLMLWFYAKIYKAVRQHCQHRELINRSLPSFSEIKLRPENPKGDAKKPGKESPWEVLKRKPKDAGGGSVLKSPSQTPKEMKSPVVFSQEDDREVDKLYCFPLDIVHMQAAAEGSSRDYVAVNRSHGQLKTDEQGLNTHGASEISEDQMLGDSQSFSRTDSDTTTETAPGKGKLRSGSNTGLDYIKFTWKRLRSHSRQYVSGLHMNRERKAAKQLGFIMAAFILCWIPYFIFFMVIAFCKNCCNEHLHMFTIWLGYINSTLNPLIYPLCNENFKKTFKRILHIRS

In the case of `O=C(O)COCCN1CCN(C(c2ccccc2)c2ccc(Cl)cc2)CC1` (stereo not shown) [cetirizine], the “lag time before onset of action” value is given as “several hours”.
